Source: PubChem BioAssay (NCI)
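Protocol summary: plate cells (96-well), add compound at 5 concentrations, incubate 48 h, interpolate endpoints linearly. TGI: concentration producing complete growth inhibition.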

Assays:
Test in all cases: NCI tumour cell line growth inhibition, 48 h
[1] = system: KM12 colon
[2] = system: SF-295 CNS
[3] = system: SK-MEL-2 melanoma
[4] = system: OVCAR-8 ovarian
[5] = system: K-562 leukemia
[6] = system: HOP-18 NSCLC
[7] = system: MOLT-4 leukemia
[8] = system: ACHN renal
[9] = system: SN12C renal
[10] = system: MALME-3M melanoma
[11] = system: OVCAR-4 ovarian
[12] = system: SF-268 CNS
[13] = system: RXF 393 renal
[14] = system: SK-OV-3 ovarian
[15] = system: HOP-62 NSCLC
[16] = system: HL-60(TB) leukemia
[17] = system: TK-10 renal
[18] = system: NCI-H460 lung
[19] = system: IGROV1 ovarian
[20] = system: HCC-2998 colon
[21] = system: RPMI-8226 leukemia
[22] = system: SK-MEL-5 melanoma
[23] = system: KM20L2 colon
[24] = system: CCRF-CEM leukemia
[25] = system: 786-0 renal
[26] = system: SNB-19 CNS
[27] = system: HCT-116 colon
[28] = system: EKVX NSCLC
[29] = system: HCT-15 colon
[30] = system: UACC-257 melanoma
[31] = system: SNB-78 CNS
[32] = system: XF 498 CNS
[33] = system: M19-MEL melanoma
[34] = system: DMS 273 small cell lung
[35] = system: HT29 colon
[36] = system: NCI-H522 lung
[37] = system: SK-MEL-28 melanoma
[38] = system: OVCAR-3 ovarian
[39] = system: COLO 205 colon
[40] = system: A549 NSCLC
[41] = system: NCI-H23 lung
[42] = system: SW-620 colon
[43] = system: NCI-H226 lung
[44] = system: SNB-75 CNS
[45] = system: UACC-62 melanoma
[46] = system: A498 renal
[47] = system: DLD-1 colon
[48] = system: SF-539 CNS
[49] = system: U251 CNS
[50] = system: LOX IMVI melanoma
[51] = system: M14 melanoma
[52] = system: HOP-92 NSCLC
[53] = system: UO-31 renal
[54] = system: RXF-631 renal
[55] = system: CAKI-1 renal
[56] = system: LXFL 529 NSCLC
[57] = system: OVCAR-5 ovarian
[58] = system: SR leukemia
[59] = system: DMS 114 small cell lung

Measured: TGI

C[C@@H](NC1CCCC[C@H]1O)c1ccccc1 (some centres undefined)
not listed: [54] | [55] | [56] | [57] | [58] | [59]
> 100 µM: all other assays above

CC(C)(O)[C@@H]1CC[C@@]2(C)CCCC(O)C2(O)C1 (some centres undefined)
not listed: [13] | [28] | [31]
> 100 µM: all other assays above
